From ChEMBL document CHEMBL5050844 (2019) come the findings set out here.

Test [1] can be described thus: Induction of anti-CD3 antibodies-stimulated human T cell activation at 10 uM assessed fold increase in TNF-alpha secretion measured by ELISA assay. Note: reference of the scale not given here. The test is classed as functional, T cell line. A general note: ELISA stands for enzyme-linked immunosorbent assay.
Test [2] can be described thus: Induction of anti-CD3 antibodies-stimulated human T cell activation at 1.11 uM assessed fold increase in TNF-alpha secretion measured by ELISA assay. Note: reference of the scale not given here. The class given is functional, T cell line.
Test [3] in a line: Induction of anti-CD3 antibodies-stimulated human CD8+ T cell activation in immunocompetent mouse assessed fold increase in CD25 expression at 180 mg/kg, po administered twice a day. Note: reference of the scale not given here. The test is classed as functional.
Test [4] is described as follows: Induction of anti-CD3/CD28 antibodies-stimulated human T cell activation at 10 uM assessed fold increase in TNF-alpha secretion measured by ELISA assay. The test is classed as functional, T cell line.
Test [5] is described as follows: Induction of anti-CD3 antibodies-stimulated human exhausted CD8+ T cell activation assessed fold increase in CTLA4 expression measured by flow cytometry analysis. Note: reference of the scale not given here. The class given is functional, T cell line. For orientation: Flow cytometry measures light scatter and fluorescence of single cells or particles in a stream.
A short description of test [6]: Induction of anti-CD3/CD28 antibodies-stimulated human T cell activation at 1 uM assessed fold increase in IL-2 secretion measured by ELISA assay. The test is classed as functional, T cell line.
Test [7] is described as follows: Induction of anti-CD3/CD28 antibodies-stimulated human anergic T cell activation at 0.37 uM assessed fold increase in IFN-gamma secretion measured by ELISA assay. The class given is functional, T cell line.
The nature of test [8]: Induction of anti-CD3 antibodies-stimulated human CD8+ T cell activation in immunocompetent mouse assessed fold increase in CD25 expression at 90 mg/kg, ip administered thrice a day. Note: reference of the scale not given here. The class given is functional.
Test [9] is described as follows: Induction of activation of human CD56+ CD3- NK cells co-cultured with human K562 cells in 1:1 ratio and assessed as increase in IFN-gamma secretion at 2.5 uM measured by ELISA assay. The test is classed as functional, Natural killer cell.
Test [10] in a line: Induction of anti-CD3/CD28 antibodies-stimulated human T cell activation at 1.11 uM assessed fold increase in TNF-alpha secretion measured by ELISA assay. The class given is functional, T cell line.
The nature of test [11]: Induction of anti-CD3 antibodies-stimulated human CD4+ T cell activation in immunocompetent mouse assessed fold increase in CD25 expression at 180 mg/kg, po administered twice a day. Note: reference of the scale not given here. The test is classed as functional.
The nature of test [12]: Induction of anti-CD3 antibodies-stimulated human CD8+ T cell activation in immunocompetent mouse assessed fold increase in CD25 expression at 135 mg/kg, po administered twice a day. Note: reference of the scale not given here. The class given is functional.
A short description of test [13]: Induction of anti-CD3 antibodies-stimulated human CD8+ T cell activation in immunocompetent mouse assessed fold increase in CD25 expression at 90 mg/kg, po administered twice a day. Note: reference of the scale not given here. The class given is functional.
The nature of test [14]: Induction of anti-CD3/CD28 antibodies-stimulated human T cell activation at 1.11 uM assessed fold increase in GM-CSF secretion measured by ELISA assay. The class given is functional, T cell line.
The nature of test [15]: Induction of activation of human CD56+ CD3- NK cells co-cultured with human K562 cells in 1:1 ratio and assessed as increase in TNF-alpha secretion at 10 uM measured by ELISA assay. The test is classed as functional, Natural killer cell.
The nature of test [16]: Induction of anti-CD3/CD28 antibodies-stimulated human CD8+ T cell activation at 10 uM assessed fold increase in CD69 expression measured by flow cytometry analysis. The class given is functional, T cell line.
The target in test [17] is T1, E3 ubiquitin-protein ligase CBL-B (Homo sapiens, UniProt Q13191). As to the kind of experiment: Inhibition of N-terminal Avi-tagged human CBL-B (36 to 427 residues) incubated with 60 nM Src kinase for 1.5 hrs followed by incubation with fluorescently labeled UbcH5B-Ub for 1 hr and measured by TR-FRET assay. The test is classed as single protein.
Test [18] in a line: Induction of anti-CD3 antibodies-stimulated human CD4+ T cell activation in immunocompetent mouse assessed fold increase in CD25 expression at 135 mg/kg, po administered twice a day. Note: reference of the scale not given here. The class given is functional.
Test [19] is described as follows: Induction of anti-CD3 antibodies-stimulated human CD4+ T cell activation in immunocompetent mouse assessed fold increase in CD25 expression at 90 mg/kg, po administered twice a day. Note: reference of the scale not given here. The test is classed as functional.
A short description of test [20]: Induction of anti-CD3 antibodies-stimulated human CD8+ T cell activation at 1.11 uM assessed fold increase in cell proliferation measured by flow cytometry analysis. Note: reference of the scale not given here. The class given is functional, T cell line.
A short description of test [21]: Induction of anti-CD3/CD28 antibodies-stimulated human CD4+ T cell activation at 1.11 uM assessed fold increase in CD69 expression measured by flow cytometry analysis. The class given is functional, T cell line.
The nature of test [22]: Induction of anti-CD3 antibodies-stimulated human CD8+ T cell activation at 10 uM assessed fold increase in cell proliferation measured by flow cytometry analysis. Note: reference of the scale not given here. The test is classed as functional, T cell line.
Test [23] has as its target T1, E3 ubiquitin-protein ligase CBL-B. As to the kind of experiment: Binding affinity towards N-terminal biotinylated Avi-tagged human CBL-B (36 to 427 residues) measured by surface plasmon resonance assay.

A value given as a limit tells only on which side of the number the result lay.

T1 sequence (Q13191 whole entry, the tested form may be a part): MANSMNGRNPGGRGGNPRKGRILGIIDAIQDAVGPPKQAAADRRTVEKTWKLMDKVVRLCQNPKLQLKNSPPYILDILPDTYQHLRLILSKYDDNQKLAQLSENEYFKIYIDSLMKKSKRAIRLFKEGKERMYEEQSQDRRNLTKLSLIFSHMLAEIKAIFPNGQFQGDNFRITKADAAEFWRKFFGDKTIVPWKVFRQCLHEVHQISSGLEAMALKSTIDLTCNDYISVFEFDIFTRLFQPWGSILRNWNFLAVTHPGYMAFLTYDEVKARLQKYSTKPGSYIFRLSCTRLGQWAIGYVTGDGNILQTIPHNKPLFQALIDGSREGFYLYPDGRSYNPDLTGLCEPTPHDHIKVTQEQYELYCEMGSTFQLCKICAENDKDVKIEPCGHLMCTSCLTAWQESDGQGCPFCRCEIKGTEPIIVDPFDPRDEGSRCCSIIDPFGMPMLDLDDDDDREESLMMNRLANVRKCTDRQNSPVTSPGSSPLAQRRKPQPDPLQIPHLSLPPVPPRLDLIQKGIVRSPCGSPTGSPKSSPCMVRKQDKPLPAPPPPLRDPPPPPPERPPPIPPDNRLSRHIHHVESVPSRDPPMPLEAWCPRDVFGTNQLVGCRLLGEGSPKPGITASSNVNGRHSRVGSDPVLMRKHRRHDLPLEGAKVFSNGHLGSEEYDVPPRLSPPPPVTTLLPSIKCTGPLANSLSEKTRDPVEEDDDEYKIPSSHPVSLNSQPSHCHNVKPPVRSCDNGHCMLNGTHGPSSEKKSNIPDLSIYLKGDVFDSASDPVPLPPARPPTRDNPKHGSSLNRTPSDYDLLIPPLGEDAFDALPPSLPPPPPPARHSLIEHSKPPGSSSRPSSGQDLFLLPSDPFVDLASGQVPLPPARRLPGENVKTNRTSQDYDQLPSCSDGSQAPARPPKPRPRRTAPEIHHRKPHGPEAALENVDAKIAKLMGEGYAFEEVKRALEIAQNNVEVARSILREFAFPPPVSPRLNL

Usually IC50 stands for the concentration needed to halve the response being measured. As to `C[C@@H](c1cc2c(c(C(F)(F)F)c1)CN(c1cccc(C3(Cc4nncn4C)COC3)c1)C2=O)N1CC[C@H](F)C1`, the “fold change (FC)” value in test [1] was 2.01; in test [2], 1.51; in test [3], 1; in test [4], over 4; in [5], “<=1.4”; in test [6], “>=7.5”. Also, the “fold change (FC)” value in test [7] is “<=2.5”; in [8] it was 1; in [9], 2.01; in [10], 2.01; in [11] it was 2.01; in test [12] it was 2.01. In addition, the “fold change (FC)” value in [13] is 1.51; in test [14] it was over 4; in test [15], 2.01; in test [16] it was 1.201; in test [18], 1.51; in test [19], 1. The “fold change (FC)” value in test [20] is recorded as over 4; in [21], 1.401; in test [22] it was over 4. The same compound came in with a 50% inhibitory concentration (IC50) in test [17] of under 100 nM.
Turning to `C[C@H](c1cc2c(c(C(F)(F)F)c1)CN(c1cccc(C3(Cc4nncn4C)COC3)c1)C2=O)N1CC[C@H](F)C1`, the “fold change (FC)” value is listed as 1.51 in test [1]; 1.51 in [2]; 1 in test [3]; 2.01 in [4]; over 1.61 in test [5]; “>=7.5” in test [6]. Also, the “fold change (FC)” value is on record as 2.51 in test [7]; 1 in test [8]; 2.01 in test [9]; 2.01 in [10]; 1 in test [11]; 1 in test [12]. Besides, the “fold change (FC)” value in [13] is given as 1; in test [14], 2.01; in test [15], “>=5”; in [16] it was 1.201; in test [18], 1; in test [19] it was 1. Also, the “fold change (FC)” value in test [20] is 3.01; in test [21] it was 1.401; in test [22], over 4. For the same compound, in test [17], the IC50 is under 100 nM.
A word on the Kd: it is the equilibrium constant for the complex coming apart. Low values mean a tighter complex, high ones a looser complex. Turning to `Cc1n[nH]c(C)c1-c1cc2c(c(C(F)(F)F)c1)CN(c1cccc(C3(Cc4nncn4C)COC3)c1)C2=O`, the “fold change (FC)” value is 1.51 in [1]; “<=1.5” in [2]; 2.01 in test [4]; over 1.61 in test [5]; 2.51 in [6]; “<=2.5” in [7]. Besides, the “fold change (FC)” value in test [9] was 1.01; in [10], 1.51; in [14], 1.51; in [15], 2.01; in [16], 1.201; in test [20], 3.01. For the same compound, the “fold change (FC)” value is 1.201 in [21] and over 4 in test [22]. This compound came in with a Kd in test [23] of under 100 nM. Moreover, the IC50 in test [17] is under 100 nM.
In the case of `Cn1cnnc1[C@@H]1C[C@@H]1c1cccc(N2Cc3c(cccc3C(F)(F)F)C2=O)c1`, the “fold change (FC)” value in test [1] is listed as “<=1.5”; in [2] it was “<=1.5”; in test [3] it was 1; in test [4] it was 2.01; in [5], “<=1.4”; in test [6], 1.01. Further, the “fold change (FC)” value in test [7] is on record as “<=2.5”; in [8], 1; in test [9], 1.01; in [10], “<=1.5”; in test [11], 2.01; in [12] it was 1. Also, the “fold change (FC)” value in test [13] was found to be 1; in test [14], 1.51; in test [15], 1.01; in test [16] it was 1.201; in test [18], 1.51; in test [19], 1. Also, the “fold change (FC)” value was “<=2” in [20], “<=1.2” in test [21] and 3.01 in test [22].
For `C[C@H](Cc1nncn1C)c1cccc(N2Cc3c(cc(CN4CC(O)C4)cc3C(F)(F)F)C2=O)c1`, the “fold change (FC)” value in test [1] is “<=1.5”; in [2] it was “<=1.5”; in [4] it was 1.51; in test [5] it was over 1.61; in test [6], “>=7.5”; in [7], “<=2.5”. Moreover, the “fold change (FC)” value in test [9] is reported as 1.01; in test [10], “<=1.5”; in test [14], “<=1.5”; in [15] it was 2.01; in [16] it was “<=1.2”; in test [20] it was “<=2”. For the same compound, the results for the “fold change (FC)” value in test [21] and in [22] were “<=1.2” and “<=2”, respectively. Also, in test [23], the Kd is under 100 nM. In addition, in [17], the IC50 is under 100 nM.
Take `COC1CN(Cc2cc3c(c(C(F)(F)F)c2)CN(c2cccc([C@@](C)(F)C(F)(F)c4nncn4C)c2)C3=O)C1`: the “fold change (FC)” value in test [1] is 1.51; in test [2], “<=1.5”; in test [4], 2.01; in test [5], over 1.61; in test [6], 5; in test [7] it was “<=2.5”. The “fold change (FC)” value is reported as “>=5” in [9]; 1.51 in test [10]; 2.01 in test [14]; “>=5” in [15]; 1.201 in [16]; 3.01 in test [20]. In addition, the entries for the “fold change (FC)” value in test [21] and in [22] were 1.201 and over 4, respectively. The dissociation constant Kd in test [23] was under 100 nM. Moreover, the IC50 in test [17] was under 100 nM.
On to `Cn1cnnc1CC1(c2cccc(N3Cc4c(cc(CN5CC(F)C5)cc4C(F)(F)F)C3=O)c2)COC1`, for which the “fold change (FC)” value is given as 1.51 in [1]; 1.51 in [2]; under 1 in test [3]; 2.01 in [4]; over 1.61 in test [5]; “>=7.5” in test [6]. For the same compound, the “fold change (FC)” value is 2.51 in test [7]; 1 in test [8]; 2.01 in test [9]; 2.01 in [10]; 1 in [11]; under 1 in [12]. In addition, the “fold change (FC)” value in [13] was 1; in test [14] it was 2.01; in test [15] it was 2.01; in [16], 1.201; in test [18] it was 1; in [19] it was 1. The “fold change (FC)” value in test [20] is reported as over 4; in test [21], 1.201; in test [22] it was over 4. This compound gave an IC50 in test [17] of under 100 nM.
